Assay results as given in patent US20050032243A1, “Method and apparatus for rapid determination of ligand-protein binding using charcoal adsorption” (priority 2001, published 2005).

Key:
[1] = biological target: T1, human serum albumin (HSA) (Homo sapiens, UniProt P02768); experiment: in vitro
Procedure: Solutions were allowed to incubate at room temperature for 30 minutes and 200 μl samples were loaded onto the DCC cartridge. Elution was initiated and samples collected under vacuum at 5, 10 and 60 seconds.
(§1) Ultrafiltration Experiments. […] Samples (0.5 ml) were centrifuged (1500×g; 3 minutes) at 25° C.
0.1 μCi/ml) in isotonic PBS and dilutions of a 40 mg/ml HSA solution were prepared. Solutions were allowed to incubate at room temperature for 30 minutes and 200 μl samples were loaded onto the DCC cartridge. Elution was initiated and samples were collected under vacuum at 1 second and at 60 seconds. Adsorption of each ligand also was evaluated after 2 hours of DCC exposure.
as §1
Evaluation of Alternative HSA Site I-Specific Ligands.
The relationship between the extent of adsorption and the unbound fraction for each ligand can be described by Equation 1. y=yo+a(1−e^−bx) Equation 1

HSA = conditions: literature reference value; cited from earlier work
[2] = biological target: T1, human serum albumin (HSA); experiment: Time course of ligand adsorption in packed-bed DCC cartridge in the presence of HSA; conditions: HSA 40 mg/ml, at termination of experiment (5 minutes)
Procedure: Model Ligand Adsorption Experiments in the DCC Cartridge. […] Charcoal adsorption experiments were conducted in the packed-bed DCC cartridge (20 mg, 10% DCC). Cartridges were prepared and preconditioned with a 40-mg/ml solution of HSA. […] 200 μl samples were loaded onto the DCC cartridge. Elution was initiated and samples collected under vacuum at 1, 2, 5, 10, 20, 40, 60, 120 and 300 seconds.
Ligand Adsorption Experiments in the DCC Cartridge. […] Charcoal adsorption experiments were conducted in a packed-bed DCC cartridge (20 mg DCC, 10% w/w). Cartridges were prepared and preconditioned with a 40 mg/ml solution of HSA. […] 200 μl samples were loaded onto the DCC cartridge. Elution was initiated and samples collected under vacuum at 1, 2, 5, 10, 20, 40, 60, 120 and 300 seconds.

[3] = 1 minute DCC exposure, mean ± SE

T1 sequence (P02768 25-609): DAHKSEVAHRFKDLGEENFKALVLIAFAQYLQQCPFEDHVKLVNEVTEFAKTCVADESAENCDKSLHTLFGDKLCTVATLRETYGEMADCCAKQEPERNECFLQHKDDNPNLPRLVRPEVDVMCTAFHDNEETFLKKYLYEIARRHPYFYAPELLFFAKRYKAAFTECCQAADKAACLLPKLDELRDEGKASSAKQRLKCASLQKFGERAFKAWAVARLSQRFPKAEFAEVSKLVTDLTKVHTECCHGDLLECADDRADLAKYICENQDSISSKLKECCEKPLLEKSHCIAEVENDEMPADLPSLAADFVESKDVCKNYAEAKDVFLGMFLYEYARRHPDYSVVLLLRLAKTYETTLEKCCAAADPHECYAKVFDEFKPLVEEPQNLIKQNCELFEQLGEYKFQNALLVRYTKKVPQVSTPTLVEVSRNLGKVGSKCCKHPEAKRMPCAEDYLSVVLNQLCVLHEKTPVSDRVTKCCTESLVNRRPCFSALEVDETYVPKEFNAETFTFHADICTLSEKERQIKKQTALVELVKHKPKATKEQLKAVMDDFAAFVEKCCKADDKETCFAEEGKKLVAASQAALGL

Compound: O=C1NC(=O)C(c2ccccc2)(c2ccccc2)N1 [[^3H]-DPH, diphenylhydantion]
- adsorption after 1 minute of exposure to DCC, restricted or not [1]: not restricted
- UNBOUND FRACTION (HSA): 0.12

Compound: N[C@@H](Cc1c[nH]c2ccccc12)C(=O)O [[^3H]-TRP, L-tryptophan]
- UNBOUND FRACTION (HSA): 0.5

Compound: CC(C)NCC(O)COc1cccc2ccccc12 (stereo not drawn) [[^3H]-PRO, propanonol]
- UNBOUND FRACTION (HSA): 0.13

Compound: CCCC(CCC)C(=O)O [[^3H]-VPA, valproic acid, valproate]
- a (empirical parameter of Equation 1) [1]: 82.9 ± 8.6
- b (empirical parameter of Equation 1) [1]: 1.5 ± 0.4
- Yo (intercept of Equation 1, extent of adsorption at unbound fraction 0) ([1]; human): 27.0 ± 4.1
- fraction unbound at 10 mg/ml ([1]; human): ~0.8
- UNBOUND FRACTION (HSA): 0.1

Compound: C[C@H]1O[C@@H](O[C@H]2[C@@H](O)C[C@H](O[C@H]3[C@@H](O)C[C@H](O[C@H]4CC[C@@]5(C)[C@H](CC[C@@H]6[C@@H]5CC[C@]5(C)[C@@H](C7=CC(=O)OC7)CC[C@]65O)C4)O[C@@H]3C)O[C@@H]2C)C[C@H](O)[C@@H]1O [[^3H]-DIGT, digitoxin]
- adsorption to DCC in the presence of HSA [2]: ~100%
- Yo (intercept of Equation 1, extent of adsorption at unbound fraction 0) [1, 3]: 0
- a (empirical parameter of Equation 1) [1, 3]: 95.6 ± 0.3
- b (empirical parameter of Equation 1) [1, 3]: 29.5 ± 0.7
- DCC adsorption as unbound fraction approached 0.2 ([1]; 1 minute of charcoal exposure): nearly complete
- UNBOUND FRACTION (HSA): 0.05
